Test results taken from patent publication US20090143419A1, “METHODS AND COMPOSITIONS FOR CONTROLLING ECTOPARASITES” (HATCHTECH PTY LTD, priority 2005, published 2009).

Assays:
[1] = tested on: Plutella xylostella eggs (Waite strain); assay: Egg hatching of Plutella xylostella
Protocol: The egg masses were then placed in a humid box at 25 degrees until egg hatch. Control eggs were exposed to absolute methanol as described above. At day 6 post laying the eggs were assessed from the different treatments and the percentage of egg hatch determined relative to the control as shown in Table 9.
Batches of Plutella eggs that were laid on either fine cloth or parafilm were dipped in a specific inhibitor solution for between 2-10 seconds, the excess solution was drained by blotting with dry tissue paper. The egg masses were then placed in a humid box at 25 degrees until egg hatch. Control eggs were exposed to absolute methanol as described above or not treated. At day 6 post laying the eggs were assessed from the different treatments and the percentage of egg hatch determined relative to the controls as shown in Tables 10 and 11.
Batches of Plutella eggs that were laid on fine cloth were dipped in a specific inhibitor solution for approximately 2 seconds, the excess solution was drained by blotting with dry tissue paper. The egg masses were then placed in a humid box at 25 degrees until egg hatch. Control eggs were exposed to absolute methanol as described above or not treated. At day 6 post laying the eggs were assessed from the different treatments and the percentage of egg hatch determined relative to the control as shown in Table 12.
The egg masses were then placed in a humid box at 25 degrees until egg hatch. Control eggs were exposed to absolute ethanol as described above. On day 6 post laying the eggs were assessed from the different treatments and the percentage of egg hatch determined relative to the control.

[2] = tested on: Helicoverpa armigera eggs (Tatura×Toowoomba strains); assay: Egg hatching of Helicoverpa armigera; settings: for % Inhibition: relative to control
Protocol: Several hundred Helicoverpa armigera eggs (Tatura×Toowoomba strains) were collected, that had been laid on fine mesh cloth over a 24 hour period.
Batches of Helicoverpa eggs were exposed to a specific inhibitor solution for between 2-10 seconds the excess solution drained by blotting with dry tissue paper. The egg masses were then placed in a humid box at 25 degrees until egg hatch. Control eggs were exposed to absolute methanol as described above.

[3] = tested on: lice eggs; assay: Time-course in vitro lice egg hatching assay; assay type: in vivo, clothing lice (Pediculus humanus humanus); settings: for % Inhibition of lice egg hatching (maximum over the time-course): 10 mM
[4] = tested on: Plutella xylostella eggs (Waite strain); assay: Effect of added metal ions (FeSO4) on inhibition of Plutella xylostella egg hatching; assay type: in vivo
Protocol: Within 24 hours of collection the following experimental design was chosen. Batches of eggs were exposed to either 10 mM 6,6′-dimethyl-2,2′-dipyridyl or solvent only (methanol) for 2 seconds. All batches of eggs were allowed to air dry for 20 minutes at room temperature. The eggs were then given a 2 second exposure to FeSO4 at either 10, 5 or 1 mM, air dried and put in the incubator at 24° C. and allowed to hatch over the next 6 days. In addition, a positive control of 10 mM 6,6′-dimethyl-2,2′-dipyridyl was set up in which eggs were exposed to this compound for 2 seconds, air dried and placed in the incubator.
Within 24 hours of collection the following experimental design was chosen. Batches of eggs were exposed to 10 mM 5,5′dimethyl-2,2′-dipyridyl or solvent only (methanol) for 2 seconds. All batches of eggs were allowed to air dry for 20 minutes at room temperature. The eggs were then given a 2 second exposure to FeSO4 at 10, 5 or 1 mM, air dried and put in an incubator at 24° C. and allowed to hatch over the next 6 days. In addition, a positive control of 10 mM, 5,5′-dimethyl-2,2′-dipyridyl was set up in which eggs were exposed to this compound for 2 seconds, air dried and placed in the incubator.

[5] = tested on: B. ovis eggs; assay: Egg hatching in Bovicola ovis; assay type: in vivo; settings: 10 mM, 10 eggs per replicate
Protocol: B. ovis eggs were collected from the wool of sheep that were infested with this parasite. The eggs were collected using forceps and with the aid of a dissecting microscope and placed in 24 well tissue culture plates in duplicate lots of 10 eggs per replicate. The eggs were then exposed to either methanol alone (solvent control) or the test compounds for either 10 minutes or 1 minute or left as untreated controls before being removed from the wells and placed into individual glass vials containing a diet at the base of the tube. The tubes were placed in plastic containers containing a salt solution (to keep humidity constant at 68%) and the containers maintained at a temperature 32° C. The eggs were monitored for hatching over the following 12 days and % hatch inhibition determined in comparison to the controls.

[6] = Table 9, 0.001 mM, dipped 2-10 seconds, day 6 post laying
[7] = Table 9, 0.01 mM, dipped 2-10 seconds, day 6 post laying
[8] = Table 9, 0.1 mM, dipped 2-10 seconds, day 6 post laying
[9] = Table 9, 1 mM, dipped 2-10 seconds, day 6 post laying
[10] = Table 9, 10 mM, dipped 2-10 seconds, day 6 post laying
[11] = Table 10, 0.01 mM, eggs laid on cloth
[12] = Table 10, 0.1 mM, eggs laid on cloth
[13] = Table 10, 1 mM, eggs laid on cloth
[14] = Table 10, 1 mM, eggs laid on cloth, relative to controls
[15] = Table 10, 10 mM, eggs laid on cloth
[16] = Table 10, 10 mM, eggs laid on cloth, relative to controls
[17] = Table 11, 0.01 mM, eggs laid on parafilm
[18] = Table 11, 0.1 mM, eggs laid on parafilm
[19] = Table 11, 1 mM, eggs laid on parafilm
[20] = Table 11, 1 mM, eggs laid on parafilm, relative to controls
[21] = Table 11, 10 mM, eggs laid on parafilm
[22] = Table 11, 10 mM, eggs laid on parafilm, relative to controls
[23] = Table 14, 1 mM, exposed 2-10 seconds, day 6 post laying
[24] = Table 14, 10 mM, exposed 2-10 seconds, day 6 post laying
[25] = Table 17, 10 mM inhibitor alone, (+ve) control
[26] = Table 17, 10 mM inhibitor followed by 2 second exposure to 1 mM FeSO4
[27] = Table 17, 10 mM inhibitor followed by 2 second exposure to 5 mM FeSO4
[28] = Table 17, 10 mM inhibitor followed by 2 second exposure to 10 mM FeSO4
[29] = Table 17, 10 mM inhibitor followed by 2 second exposure to MEOH
[30] = Table 12, 0.01 mM, cloth, dipped approximately 2 seconds
[31] = Table 12, 0.1 mM, cloth, dipped approximately 2 seconds
[32] = Table 12, 1 mM, cloth, dipped approximately 2 seconds
[33] = Table 12, 10 mM, cloth, dipped approximately 2 seconds
[34] = Table 13, 0.1 mM, cloth, dipped approximately 2 seconds
[35] = Table 13, 1 mM, cloth, dipped approximately 2 seconds
[36] = Table 18, 10 mM inhibitor alone, (+ve) control
[37] = Table 18, 10 mM inhibitor followed by 2 second exposure to 1 mM FeSO4
[38] = Table 18, 10 mM inhibitor followed by 2 second exposure to 5 mM FeSO4
[39] = Table 18, 10 mM inhibitor followed by 2 second exposure to 10 mM FeSO4
[40] = Table 18, 10 mM inhibitor followed by 2 second exposure to MEOH

`Cc1cccc(-c2cccc(C)n2)n1` [6,6′-dimethyl-2,2′-dipyridyl] was tested, and the Number hatched [1, 6] was 11, the Number unhatched [1, 6] was 6 and the “% Inhibition” value ([1]; Table 9, 0.001 mM, relative to control (100% MeOH)) was 0%. The Number hatched [1, 7] was 13, the Number unhatched [1, 7] was 7 and the “% Inhibition” value ([1]; Table 9, 0.01 mM, relative to control (100% MeOH)) was 0%. The Number hatched [1, 8] was 23, the Number unhatched [1, 8] was 29 and the “% Inhibition” value ([1]; Table 9, 0.1 mM, relative to control (100% MeOH)) was 0%. The Number hatched [1, 9] was 0, the Number unhatched [1, 9] was 26 and the “% Inhibition” value ([1]; Table 9, 1 mM, relative to control (100% MeOH)) was 100%. For the same compound, the “% Inhibition” value ([1]; Table 9, 1 mM, relative to control (100% MeOH), listed as 6,6′dimethyl-2,2′dipyridyl) was “strong ovicidal effects”, the Number hatched [1, 10] was 0 and the Number unhatched [1, 10] was 79. The “% Inhibition” value ([1]; Table 9, 10 mM, relative to control (100% MeOH)) was 100%, the “% Inhibition” value ([1]; Table 9, 10 mM, relative to control (100% MeOH), listed as 6,6′dimethyl-2,2′dipyridyl) was “strong ovicidal effects” and the Number hatched [1, 11] was 23. The Number unhatched [1, 11] was 4, the “% Inhibition” value ([1]; Table 10, 0.01 mM, eggs laid on cloth, relative to controls) was 12% and the Number hatched [1, 12] was 49. The Number unhatched [1, 12] was 49, the “% Inhibition” value ([1]; Table 10, 0.1 mM, eggs laid on cloth, relative to controls) was 0% and the Number hatched [1, 13] was 0. For the same compound, the Number unhatched [1, 13] was 23, the “% Inhibition” value [1, 14] was 100% and the Number hatched [1, 15] was 0. The Number unhatched [1, 15] was 53, the “% Inhibition” value [1, 16] was 100% and the Number hatched [1, 17] was 92. For the same compound, the Number unhatched [1, 17] was 4, the “% Inhibition” value ([1]; Table 11, 0.01 mM, eggs laid on parafilm, relative to controls) was 0% and the Number hatched [1, 18] was 65. The Number unhatched [1, 18] was 70, the “% Inhibition” value ([1]; Table 11, 0.1 mM, eggs laid on parafilm, relative to controls) was 7% and the Number hatched [1, 19] was 0. For the same compound, the Number unhatched [1, 19] was 63, the “% Inhibition” value [1, 20] was 100% and the Number hatched [1, 21] was 0. For the same compound, the “% Inhibition” value [1, 22] was 100%, the “% Inhibition” value ([2]; Table 14, 0.001 mM) was 0% and the “% Inhibition” value ([2]; Table 14, 0.01 mM) was 0%. For the same compound, the “% Inhibition” value ([2]; Table 14, 0.1 mM) was 0%, the Number hatched [2, 23] was 4 and the Number unhatched [2, 23] was 140. For the same compound, the “% Inhibition” value ([2]; Table 14, 1 mM) was 97%, the “% Inhibition” value ([2]; Table 14, 1 mM, listed as 6,6′dimethyl-2,2′dipyridyl) was “significantly inhibit egg hatching” and the Number hatched [2, 24] was 7. The Number unhatched [2, 24] was 98, the “% Inhibition” value ([2]; Table 14, 10 mM) was 94% and the “% Inhibition” value ([2]; Table 14, 10 mM, listed as 6,6′dimethyl-2,2′dipyridyl) was “significantly inhibit egg hatching”. It also gave a Number hatched ([2]; Table 15, 0.1 mM) of 70, a Number unhatched ([2]; Table 15, 0.1 mM) of 0 and a Number hatched ([2]; Table 15, 1 mM) of 2. It also gave a Number unhatched ([2]; Table 15, 1 mM) of 61, a Number hatched ([2]; Table 15, 10 mM) of 3 and a Number unhatched ([2]; Table 15, 10 mM) of 48. The “% Inhibition of lice egg hatching (maximum over the time-course)” value [3] was 100%, the “H (number of eggs successfully hatched)” value ([3]; Table 6, […], per replicate) was 0 and the “Ph (number of eggs partly hatched)” value ([3]; Table 6, […], per replicate) was 0. For the same compound, the lice egg hatching ([3]; in vivo) was “completely inhibited”, the “% Inhibition” value [4, 25] was 100% and the Number hatched [4, 25] was 0. For the same compound, the Number unhatched [4, 25] was 44, the Number hatched [4, 26] was 33 and the Number unhatched [4, 26] was 1. The “% Inhibition” value ([4]; Table 17, 10 mM inhibitor followed by 2 second exposure to 1 mM FeSO4, relative to the FeSO4 controls) was 3%, the Number hatched [4, 27] was 25 and the Number unhatched [4, 27] was 0. The “% Inhibition” value ([4]; Table 17, 10 mM inhibitor followed by 2 second exposure to 5 mM FeSO4, relative to the FeSO4 controls) was 0%, the Number hatched [4, 28] was 12 and the Number unhatched [4, 28] was 19. The “% Inhibition” value ([4]; Table 17, 10 mM inhibitor followed by 2 second exposure to 10 mM FeSO4, relative to the FeSO4 controls) was 38%, the Number hatched [4, 29] was 3 and the Number unhatched [4, 29] was 28. For the same compound, the Number unhatched ([5]; 1 minute exposure) was 10 and the Number unhatched ([5]; 10 minute exposure) was 10.

`Cc1ccc(-c2ccc(C)cn2)nc1` [5,5′-dimethyl-2,2′-dipyridyl] was tested, and the Number hatched [1, 13] was 5, the Number unhatched [1, 13] was 22 and the “% Inhibition” value [1, 14] was 78%. The Number hatched [1, 15] was 0, the Number unhatched [1, 15] was 21 and the “% Inhibition” value [1, 16] was 100%. The Number hatched [1, 19] was 18, the Number unhatched [1, 19] was 151 and the “% Inhibition” value [1, 20] was 88%. The Number hatched [1, 21] was 0, the Number unhatched [1, 21] was 142 and the “% Inhibition” value [1, 22] was 100%. The Number hatched [1, 30] was 37, the Number unhatched [1, 30] was 3 and the Number hatched [1, 31] was 22. For the same compound, the Number unhatched [1, 31] was 16, the Number hatched [1, 32] was 1 and the Number unhatched [1, 32] was 45. For the same compound, the Number hatched [1, 33] was 0, the Number unhatched [1, 33] was 68 and the Number hatched [1, 34] was 32. It also gave a Number unhatched [1, 34] of 52, a Number hatched [1, 35] of 2 and a Number unhatched [1, 35] of 118. For the same compound, the Number hatched ([2]; Table 15, 10 mM) was 0, the Number unhatched ([2]; Table 15, 10 mM) was 42 and the “% Inhibition of lice egg hatching (maximum over the time-course)” value [3] was 100%. The “% Inhibition” value [4, 36] was 100%, the Number hatched [4, 36] was 0 and the Number unhatched [4, 36] was 38. The Number hatched [4, 37] was 39, the Number unhatched [4, 37] was 0 and the “% Inhibition” value ([4]; Table 18, 10 mM inhibitor followed by 2 second exposure to 1 mM FeSO4, relative to the FeSO4 only controls) was 0%. The Number hatched [4, 38] was 25, the Number unhatched [4, 38] was 0 and the “% Inhibition” value ([4]; Table 18, 10 mM inhibitor followed by 2 second exposure to 5 mM FeSO4, relative to the FeSO4 only controls) was 0%. For the same compound, the Number hatched [4, 39] was 23, the Number unhatched [4, 39] was 2 and the “% Inhibition” value ([4]; Table 18, 10 mM inhibitor followed by 2 second exposure to 10 mM FeSO4, relative to the FeSO4 only controls) was 8%. It also gave a Number hatched [4, 40] of 16, a Number unhatched [4, 40] of 19 and a Number unhatched ([5]; 1 minute exposure) of 10. It also gave a Number unhatched ([5]; 10 minute exposure) of 10.
